Data on 2 compounds can be found in paper PMC11728707, “Chemical Composition and Assessment of the Anti-Inflammatory, Antioxidant, Cytotoxic and Skin Enzyme Inhibitory Activities of Citrus sinensis (L.) Osbeck Essential Oil and Its Major Compound Limonene” (Pharmaceuticals, 2024).

The target in this experiment is T1, tyrosinase.
T1 construct: gene PPO3
Description: spectrophotometric L-DOPA oxidation assay, […] nm. In kind it is biochemical. Particulars: 5 mM L-DOPA, 50 mM phosphate pH 6.5, 37 °C.

Compound `C=C(C)[C@H]1CC=C(C)CC1` [Limonene] yielded a Tyrosinase of 86.07 ± 1.53 µg/mL.
Next, `O=c1c(O)c(-c2ccc(O)c(O)c2)oc2cc(O)cc(O)c12` [Quercetin]: 111.03 ± 0.1 µg/mL.
